Experimental findings from publication PMC3288053 (PLoS ONE, 2012) are described below.

What all share (test): PTP enzyme inhibition assay (pNPP substrate)
Holding throughout (format): biochemical

The target in one assay is T1, CD45 (Homo sapiens, UniProt P08575).
T1 construct: pGEX2T-CD45_560–1256; GST (N); made in house; host or cells: E. coli BL21 (DE3)
The note with it: PTPs 0.3 µM, pNPP 5 mM, 25°C; NI: No inhibition at 100 µM. The protocol:
(§1) The enzymatic activities of the recombinant PTPs are measured at 25°C using pNPP as substrate. The initial velocities of enzymatic reactions are determined by continuously measuring the absorbance at 405 nm every 15 s using a microplate spectrophotometer (Bio-Rad). […] To determine the inhibition type, each concentration of Rut (0, 50 and 75 µM) is incubated with PTP1B (0.3 µM) in reaction buffer (50 mM HEPES, pH7.0, 1 mM EDTA, and 100 mM NaCl) for 10 min and the reactions are initiated by different concentrations of pNPP (0.5–10 mM). The inhibition type is determined using double-reciprocal plots. In determination of the selectivity of Rut against PTPs, the result is referred as no inhibition when 100 µM Rut inhibits no enzyme activity. The same reaction systems are designed for all PTPs including PTP1B.

The target in a further assay is T2, LAR (Homo sapiens, UniProt P10586).
T2 construct: pGEX2T-LAR1282–1888; GST (N); made in house; host or cells: E. coli BL21 (DE3)
T2 sequence (P10586 1301-1907 limits assumed): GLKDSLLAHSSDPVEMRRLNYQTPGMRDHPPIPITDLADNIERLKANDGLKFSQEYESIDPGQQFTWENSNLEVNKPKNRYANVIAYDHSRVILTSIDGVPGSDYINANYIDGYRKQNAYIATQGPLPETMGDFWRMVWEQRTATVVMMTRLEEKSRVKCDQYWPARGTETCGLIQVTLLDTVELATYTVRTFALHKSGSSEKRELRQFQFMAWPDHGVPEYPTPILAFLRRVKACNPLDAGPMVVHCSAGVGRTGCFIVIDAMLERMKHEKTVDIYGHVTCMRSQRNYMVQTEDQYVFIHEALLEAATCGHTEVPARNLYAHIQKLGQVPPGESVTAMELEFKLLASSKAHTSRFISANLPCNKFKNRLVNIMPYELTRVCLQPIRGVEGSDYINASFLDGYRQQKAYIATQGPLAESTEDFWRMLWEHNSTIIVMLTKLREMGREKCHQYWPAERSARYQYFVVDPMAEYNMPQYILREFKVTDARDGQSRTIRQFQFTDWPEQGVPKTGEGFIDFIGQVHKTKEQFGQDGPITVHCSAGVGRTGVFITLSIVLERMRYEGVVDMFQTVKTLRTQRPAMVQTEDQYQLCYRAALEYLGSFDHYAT
Conditions: read-out: IC50 LAR; PTPs 0.3 µM, pNPP 5 mM, 25°C; NI: No inhibition at 100 µM. The method, then:
as §1

For the next assay, the target named is T3, PTP1B (Homo sapiens, UniProt P18031).
T3 construct: pGEX4T-1-PTP1B1–321; GST (N); made in house; host or cells: E. coli BL21 (DE3)
T3 sequence (P18031 1-321): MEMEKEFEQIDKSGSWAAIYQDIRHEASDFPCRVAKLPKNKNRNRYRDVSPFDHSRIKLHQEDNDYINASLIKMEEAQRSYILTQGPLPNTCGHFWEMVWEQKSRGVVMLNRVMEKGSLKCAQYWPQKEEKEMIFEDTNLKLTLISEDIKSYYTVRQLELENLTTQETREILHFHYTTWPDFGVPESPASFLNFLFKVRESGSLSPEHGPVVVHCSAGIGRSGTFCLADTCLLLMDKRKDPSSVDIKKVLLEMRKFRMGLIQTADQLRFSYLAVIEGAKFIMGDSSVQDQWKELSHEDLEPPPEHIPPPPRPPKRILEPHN
The protocol:
as §1

Another assay concerns the target T4, PTPα (Homo sapiens, UniProt P18433).
T4 construct: pGEX2T-PTPα182–803; GST (N); made in house; host or cells: E. coli BL21 (DE3)
The note with it: read-out: IC50 PTPα; PTPs 0.3 µM, pNPP 5 mM, 25°C; NI: No inhibition at 100 µM. The protocol: as §1

Another assay concerns the target T5, TC-PTP (Homo sapiens, UniProt P17706).
T5 construct: pGEX4T-1-TC-PTP1–288; GST (N); made in house; host or cells: E. coli BL21 (DE3)
Conditions: PTPs 0.3 µM, pNPP 5 mM, 25°C; NI: No inhibition at 100 µM. The method, then: as §1

In general, IC50 refers to the concentration that inhibits the measured activity by half.

T1 sequence (P08575 610-1306 limits assumed): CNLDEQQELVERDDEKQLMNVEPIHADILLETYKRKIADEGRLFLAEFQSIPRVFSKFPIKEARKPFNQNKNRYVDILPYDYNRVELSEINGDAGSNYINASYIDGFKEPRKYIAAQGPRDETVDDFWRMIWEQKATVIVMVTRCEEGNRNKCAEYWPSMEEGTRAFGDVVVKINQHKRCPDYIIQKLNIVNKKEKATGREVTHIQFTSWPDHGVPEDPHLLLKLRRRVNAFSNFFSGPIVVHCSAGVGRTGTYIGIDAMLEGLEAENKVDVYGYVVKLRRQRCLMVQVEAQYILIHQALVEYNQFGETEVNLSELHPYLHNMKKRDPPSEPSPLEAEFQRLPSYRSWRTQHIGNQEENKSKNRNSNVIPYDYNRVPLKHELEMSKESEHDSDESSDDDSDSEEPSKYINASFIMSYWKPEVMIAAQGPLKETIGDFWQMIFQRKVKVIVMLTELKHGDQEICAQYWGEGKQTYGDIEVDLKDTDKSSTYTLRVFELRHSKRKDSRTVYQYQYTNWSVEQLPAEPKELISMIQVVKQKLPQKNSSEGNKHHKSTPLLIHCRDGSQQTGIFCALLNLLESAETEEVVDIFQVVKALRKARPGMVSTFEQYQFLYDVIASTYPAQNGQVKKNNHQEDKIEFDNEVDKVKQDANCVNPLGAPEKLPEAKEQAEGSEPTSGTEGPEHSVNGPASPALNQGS
T5 sequence (P17706 1-288): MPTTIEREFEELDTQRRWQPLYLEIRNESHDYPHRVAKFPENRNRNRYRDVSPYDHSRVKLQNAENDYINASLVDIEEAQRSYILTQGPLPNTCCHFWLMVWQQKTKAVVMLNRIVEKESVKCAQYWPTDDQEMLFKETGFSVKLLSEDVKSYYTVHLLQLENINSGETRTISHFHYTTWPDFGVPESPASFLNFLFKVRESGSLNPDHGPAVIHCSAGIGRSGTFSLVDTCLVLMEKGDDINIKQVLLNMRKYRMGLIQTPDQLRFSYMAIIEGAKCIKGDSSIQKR

Turning to `C=CC(C)(C)c1cc2cc3c(cc2oc1=O)O[C@H](C(C)(C)OC(C)=O)C3` [(+)-Rutamarin], the IC50 at CD45 was greater than 100 µM; at LAR, greater than 100 µM; at PTP1B (PTPs 0.3 µM, pNPP 5 mM, 25°C, NI: No inhibition at 100 µM), 6.4 µM; at PTPα, greater than 100 µM; at TC-PTP, 26.8 µM. The “inhibition type (Lineweaver-Burk, double-reciprocal plots)” value on PTP1B (Rut 0, 50 and 75 µM, pNPP 0.5–10 mM) is recorded as “competitive inhibitor”.
